ChEMBL document CHEMBL1201862, “PubChem BioAssay data set” (2004)
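Where inhibition never reached the appropriate level, the endpoint shown equals the highest concentration tested. Otherwise, values were interpolated linearly from a five-concentration, 48-hour dose response in 96-well plates. GI50 is the concentration that inhibits growth by half.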 Activity calls are given as the source filed them. Cut-off read from the data, not from the text of the source: active = GI50 up to about 1.1 µM and inactive = higher. *1 amine or outer side, *2 acyl side, *3 side chain or, on linkers, in order; H or OH if unused. Where a SMILES comes first, the peptide text is derived from it. [ ]: non-standard residue; d: D form. The star is where a group is joined. X31 = CC(=O)N(C)SCC(N[*:1])C(=O)[*:2]; Fmoc = O=C(OCC1c2ccccc2-c2ccccc21)*; For = O=C*

Assays:
Assay in all cases: growth of human tumour cells (NCI), 48 h
[1] = system: ACHN
[2] = system: CCRF-CEM
[3] = system: COLO 205
[4] = system: HCT-116
[5] = system: HL-60
[6] = system: HOP-62
[7] = system: HT-29
[8] = system: Hs-578T
[9] = system: MDA-N
[10] = system: NCI-H226
[11] = system: NCI-H522
[12] = system: OVCAR-3
[13] = system: RXF 393
[14] = system: SF-268
[15] = system: SW-620
[16] = system: T47D
[17] = system: U-251
[18] = system: UACC-257
[19] = system: UACC-62
[20] = system: UO-31

Measured: GI50

CC(=O)N(C)SCC(NC(=O)C(Cc1ccccc1)NC(=O)OCC1c2ccccc2-c2ccccc21)C(=O)NC(Cc1ccccc1)C(=O)NC(Cc1cn(C=O)c2ccccc12)C(=O)NC(CCCCNC(=O)OCC1c2ccccc2-c2ccccc21)C(=O)NC(C(=O)NC(CSN(C)C(C)=O)C(=O)NC(C(N)=O)C(C)O)C(C)O (stereo not given) (Fmoc-F[X31]FW(For)K(Fmoc)T[X31]T-NH2; configuration not given here)
inactive: [1] 37 µM | [2] > 100 µM | [3] 36.6 µM | [4] 77.8 µM | [5] > 100 µM | [6] > 100 µM | [7] > 100 µM | [8] > 100 µM | [9] 36.7 µM | [10] > 100 µM | [11] 89.7 µM | [12] > 100 µM | [13] 20.5 µM | [14] > 100 µM | [15] > 100 µM | [16] > 100 µM | [17] > 100 µM | [18] 90.2 µM | [19] 58.6 µM | [20] 16.2 µM

COC(=O)Nc1nc2cc(S(=O)(=O)Nc3ccccn3)ccc2[nH]1
inactive: [1] 63 µM | [2] 26.1 µM | [3] 32.7 µM | [4] 49.9 µM | [5] 10.8 µM | [6] 73.3 µM | [7] 43.1 µM | [8] 35.6 µM | [9] 20.7 µM | [10] 36.3 µM | [11] 45.2 µM | [12] 32.4 µM | [13] 39.6 µM | [14] 72.6 µM | [15] 17.1 µM | [16] 44.2 µM | [17] 67.5 µM | [18] 17.7 µM | [19] 42.6 µM | [20] 76 µM

CC(=O)O[C@@H]1C[C@@]23C[C@@]24CC[C@H](OC2OCC(O)C(O)C2O)C(C)(C)[C@@H]4CC=C3[C@]2(C)C[C@@H]3OC4(C[C@@H](C)[C@@H]3[C@@]12C)OC(O)[C@@]1(C)O[C@@H]41 (stereo not given in full)
inactive: [1] 43.5 µM | [2] 11.7 µM | [3] 21.3 µM | [4] 19.4 µM | [5] 7.73 µM | [6] 27.4 µM | [7] 33.2 µM | [8] 40.4 µM | [9] 30.9 µM | [10] 35.4 µM | [11] 23 µM | [12] 12.1 µM | [13] 15.9 µM | [14] 58.7 µM | [15] 36.5 µM | [16] 20.8 µM | [17] 30.7 µM | [18] 26.9 µM | [19] 21.7 µM | [20] 41.8 µM

Cn1c(=O)c2nc(SCCN3CCOCC3)[nH]c2n(C)c1=S
inactive: [1] > 100 µM | [2] > 100 µM | [3] > 100 µM | [4] > 100 µM | [5] > 100 µM | [6] > 100 µM | [7] > 100 µM | [8] > 100 µM | [9] > 100 µM | [10] > 100 µM | [11] > 100 µM | [12] > 100 µM | [13] > 100 µM | [14] > 100 µM | [15] > 100 µM | [16] > 100 µM | [17] > 100 µM | [18] > 100 µM | [19] > 100 µM | [20] > 100 µM

O=c1oc2ccccc2c(-c2ccc(O)cc2)c1Oc1ccccc1
inactive: [1] 10.2 µM | [2] 25.4 µM | [3] 29.4 µM | [4] 20 µM | [5] 54 µM | [6] 24.1 µM | [7] > 52.1 µM | [8] 7.5 µM | [9] 14.3 µM | [10] > 47 µM | [11] 3.47 µM | [12] 17.5 µM | [13] 23 µM | [14] 8.57 µM | [15] 37.8 µM | [16] > 100 µM | [17] 8.51 µM | [18] 7.83 µM | [19] 5.18 µM | [20] 7.73 µM

CC1=NN(c2ccc(S(=O)(=O)O)cc2)C2(C1)C(Cl)C(=O)N2c1nc2ccccc2s1 (stereo not given)
inactive: [1] > 100 µM | [2] > 100 µM | [3] > 100 µM | [4] > 100 µM | [5] > 100 µM | [6] 91.2 µM | [7] > 100 µM | [8] > 100 µM | [9] > 100 µM | [10] 21.4 µM | [11] > 100 µM | [12] 68.4 µM | [13] > 100 µM | [14] > 100 µM | [15] > 100 µM | [16] 59.8 µM | [17] > 100 µM | [18] > 100 µM | [19] 95.9 µM | [20] > 100 µM

CCOC(=O)Cn1nnc2ccc(Nc3nc4ccccc4nc3-c3ccccc3)cc21
inactive: [1] > 100 µM | [2] > 100 µM | [3] > 100 µM | [4] 95.3 µM | [5] > 100 µM | [6] 48 µM | [7] > 100 µM | [8] 75.2 µM | [9] > 100 µM | [10] > 100 µM | [11] > 100 µM | [12] 60.7 µM | [13] > 100 µM | [14] 65.5 µM | [15] > 100 µM | [16] > 100 µM | [17] 71.4 µM | [18] 70.5 µM | [19] > 100 µM | [20] 4.72 µM
